“And” between values parts separate entries of the source, which are not always exact repeats. Equal values may be shown once. Read-outs that look alike come from different tables or passages of the source.
Assays:
[1] = tested on: CYP1A1 mRNA; design: method as in PMID 24563545; conditions: cited from earlier work
[2] = tested on: AhR; design: method as in PMID 26235394; conditions: 100 µM IND, HepG2 cells, 4 h; cited from earlier work
[3] = target: T1, AhR (Homo sapiens, UniProt P35869); assay: Immunofluorescence detection of nuclear translocation of the AhR in LS180 cells; format: cell-based; design: 0.1% V/V), TCDD (10 nM), and test MICT; host or cells: LS180 cells
T1 sequence (P35869 11-848): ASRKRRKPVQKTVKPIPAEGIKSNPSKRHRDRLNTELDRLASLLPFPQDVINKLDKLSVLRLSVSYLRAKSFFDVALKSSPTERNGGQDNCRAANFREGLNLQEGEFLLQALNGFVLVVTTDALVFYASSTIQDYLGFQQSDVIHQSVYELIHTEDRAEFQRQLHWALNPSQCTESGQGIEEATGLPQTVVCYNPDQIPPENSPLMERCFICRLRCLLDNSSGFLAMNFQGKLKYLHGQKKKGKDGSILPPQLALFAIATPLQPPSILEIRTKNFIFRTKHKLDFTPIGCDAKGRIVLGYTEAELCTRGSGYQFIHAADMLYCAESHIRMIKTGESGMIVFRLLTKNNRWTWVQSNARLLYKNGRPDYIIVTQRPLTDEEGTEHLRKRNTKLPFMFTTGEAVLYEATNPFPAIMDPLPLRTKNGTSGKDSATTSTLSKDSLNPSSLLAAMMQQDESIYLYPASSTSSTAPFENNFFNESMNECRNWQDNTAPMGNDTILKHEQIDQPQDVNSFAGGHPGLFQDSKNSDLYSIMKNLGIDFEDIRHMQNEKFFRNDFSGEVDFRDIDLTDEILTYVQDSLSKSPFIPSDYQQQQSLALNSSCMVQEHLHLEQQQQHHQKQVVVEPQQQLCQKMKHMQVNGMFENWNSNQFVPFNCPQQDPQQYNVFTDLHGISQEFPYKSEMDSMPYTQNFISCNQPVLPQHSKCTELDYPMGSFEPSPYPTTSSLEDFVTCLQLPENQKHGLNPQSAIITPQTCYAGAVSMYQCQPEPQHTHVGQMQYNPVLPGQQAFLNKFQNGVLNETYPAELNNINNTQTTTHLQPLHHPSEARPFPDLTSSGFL
Experimental: Figure 5 Effect of MICT on nuclear translocation of the AhR. LS180 cells were incubated for 90 min with vehicle (DMSO; 0.1% V/V), TCDD (10 nM), and test MICT. The experiments were performed in three consecutive cell passages with all tested compounds in duplication. Fluorescence images depict sub-cellular localization of AhR (upper panels) and nuclear staining by DAPI (lower panels). Representative micrographs are shown.
LS180 cells (60,000 cells/well) were plated on 8-well chambered slides (94.6140.802, Sarstedt, Nümbrecht, Germany) and allowed to grow overnight. Then, the cells were incubated with DMSO (0.1% V/V), TCDD (10 nM), IND (1000 µM), IPY (200 µM), 3MI (200 µM), TA (200 µM), IAC (100 µM), and IAD (200 µM). The staining procedure was described in detail elsewhere. The images were captured using an IX73 fluorescence microscope (Olympus, Tokyo, Japan). The immunofluorescence signal intensity (of the AhR antibody) in the nucleus was evaluated visually. For percentage calculation, approximately 500 cells from at least four randomly selected fields of view in each specimen were used.
Suppl. Table 1. Nuclear translocation of AhR – quantification of immunofluorescence.
LS180 cells were incubated for 90 min with MICT , vehicle or TCDD. Intracellular AhR was visualized with Alexa Fluor 488 labelled primary antibody. The whole staining protocol was performed in three independent experiments in technical duplicates. The AhR translocation was evaluated visually depending on the distinct signal intensity of AhR antibody in the nucleus and cytosol. For percentage calculation, approximately one hundred cells from at least four randomly selected fields of view in each

[4] = tested on: CYP1A1 promoter; assay: Chromatin immunoprecipitation (ChIP), binding of the AhR to CYP1A1 promoter in LS180 cells; format: cell-based, human; conditions: 90 min
Experimental: Figure 7 MICT elicit the binding of the AhR to CYP1A1 promoter, as determined by the chromatin immunoprecipitation assay (ChIP). LS180 cells were incubated with vehicle, TCDD, and tested compounds, as described in Materials and Methods, and were then subjected to ChIP analysis. Bar graphs show binding of the AhR to CYP1A1 promoter as quantified by RT-PCR. The entire protocol was carried out in three consecutive cell passages. The data are expressed as a fold enrichment to vehicle-treated cells and show the mean ± SD from duplicates (technical replicates). DNA fragments amplified by PCR were resolved on 2% agarose gel (representative record from “exp 2” is shown).
LS180 cells (4 million) were seeded in a 60-mm dish in Dulbecco’s modified Eagle’s medium (D6546; Sigma Aldrich). The following day, the cells were incubated with DMSO (0.1% V/V), TCDD (10 nM), IND (1000 µM), IPY (200 µM), 3MI (200 µM), TA (200 µM), IAC (100 µM), and IAD (200 µM) for 90 min at 37 °C. ChIP assay was performed as we described in detail elsewhere.

[5] = tested on: AhR; design: method as in PMID 23973224; conditions: mouse H1L1.1c2 reporter cells; cited from earlier work
[6] = LS180, 90 min, exp 1, TCDD 10 nM, Indole 1 mM, IAC 100 µM, others 200 µM
[7] = LS180, 90 min, exp 2, TCDD 10 nM, Indole 1 mM, IAC 100 µM, others 200 µM
[8] = LS180, 90 min, exp 3, TCDD 10 nM, Indole 1 mM, IAC 100 µM, others 200 µM
[9] = mean ± SD, n = 3, relative to TCDD-treated cells, LS180, 90 min
[10] = relative to TCDD-treated cells, LS180, 90 min, exp 1, same concentrations
[11] = relative to TCDD-treated cells, LS180, 90 min, exp 2, same concentrations
[12] = relative to TCDD-treated cells, LS180, 90 min, exp 3, same concentrations

c1ccc2[nH]ccc2c1 [IND, indole]
induction of CYP1A1 mRNA ([1]; various human cells, 500–1000 µM IND): moderate induction | activation of AhR [2]: achieved | induction of CYP1A1 mRNA [2]: achieved | % positive AhR nuclei [3]: 61% and 73% and 65% | % relative AhR nuclei [3]: 113% and 95% and 107% | Ø AhR positive nuclei [3]: 105 ± 9.2%

Clc1cc2c(cc1Cl)Oc1cc(Cl)c(Cl)cc1O2 [TCDD, 2,3,7,8-tetrachlorodibenzo-p-dioxin, reference compound]
binding of the AhR to the promoter of the CYP1A1 gene [4]: enhanced | % positive AhR nuclei [3, 6]: 54% | % positive AhR nuclei [3, 7]: 77% | % positive AhR nuclei [3, 8]: 61%

O=C(O)/C=C/c1c[nH]c2ccccc12 [IAC, indole-3-acrylate]
% positive AhR nuclei [3, 6]: 51% | % positive AhR nuclei [3, 7]: 61% | % positive AhR nuclei [3, 8]: 73% | Ø AhR positive nuclei [3, 9]: 98 ± 20.4% | % relative AhR nuclei [3, 10]: 94% | % relative AhR nuclei [3, 11]: 79% | % relative AhR nuclei [3, 12]: 120%

NC(=O)Cc1c[nH]c2ccccc12 [IAD, indole-3-acetamide]
% positive AhR nuclei [3, 6]: 46% | % positive AhR nuclei [3, 7]: 73% | % positive AhR nuclei [3, 8]: 42% | Ø AhR positive nuclei [3, 9]: 83 ± 13.1% | % relative AhR nuclei [3, 10]: 85% | % relative AhR nuclei [3, 11]: 95% | % relative AhR nuclei [3, 12]: 69%

Cc1c[nH]c2ccccc12 [3MI, skatole]
% positive AhR nuclei [3, 6]: 65% | % positive AhR nuclei [3, 7]: 72% | % positive AhR nuclei [3, 8]: 62% | Ø AhR positive nuclei [3, 9]: 105 ± 13.8% | % relative AhR nuclei [3, 10]: 120% | % relative AhR nuclei [3, 11]: 94% | % relative AhR nuclei [3, 12]: 102%

O=C(O)C(=O)Cc1c[nH]c2ccccc12 [IPY, indole-3-pyruvate]
% positive AhR nuclei [3, 6]: 42% | % positive AhR nuclei [3, 7]: 60% | % positive AhR nuclei [3, 8]: 38% | Ø AhR positive nuclei [3, 9]: 73 ± 9.0% | % relative AhR nuclei [3, 10]: 78% | % relative AhR nuclei [3, 11]: 78% | % relative AhR nuclei [3, 12]: 62%

O=Cc1c[nH]c2ccccc12 [IA, indole-3-aldehyde]
agonist activity [5]: vigorous agonist activity

NCCc1c[nH]c2ccccc12 [TA, tryptamine]
CYP1A1 mRNA induction ([1]; 50 µM TA, Caco-2 and cells): induction | % positive AhR nuclei [3, 6]: 44% | % positive AhR nuclei [3, 7]: 65% | % positive AhR nuclei [3, 8]: 66% | Ø AhR positive nuclei [3, 9]: 91 ± 14.6% | % relative AhR nuclei [3, 10]: 81% | % relative AhR nuclei [3, 11]: 84% | % relative AhR nuclei [3, 12]: 108%

Reference: paper PMC7177849, “Gut Microbial Catabolites of Tryptophan Are Ligands and Agonists of the Aryl Hydrocarbon Receptor: A Detailed Characterization” (International Journal of Molecular Sciences, 2020)
